In experiment [1] the target is GDP-loaded wild-type KRAS (WT) (Homo sapiens (Human), UniProt P01116). The experiment can be described thus: KRAS (GDP) biochemical TR-FRET probe displacement assay, WT KRAS. The format is binding. The following applies: 2 hours. How it is done:
(§1) KRAS (GDP) Biochemical Assays:
(§2) Compounds were serially diluted (1:3) in DMSO. The LabCyte ECHO Acoustic dispenser was used to pre-spot the assay plates (384-well Non-Binding Surface plates, Corning, Catalog #3824) with 50 nL of compound. 5 μL of 2× enzyme concentration was added to the pre-spotted plates and incubated for 30 minutes before adding 5 μL of 2× concentration of Eu-streptavidin and Cy-5 labelled probe (10 μL final reaction volume). The plates were incubated at room temperature for 2 hours before measuring TR-FRET ratio (665 nm/615 nm) on the Envision multimode plate reader. The ratios were normalized to a positive (saturating concentration of known inhibitor) and negative (DMSO) control and plotted against the log of compound concentration.
For orientation: In TR-FRET formats the signal depends on donor and acceptor labels being close together.

The next experiment concerns the target GDP-loaded KRAS-G12C (Homo sapiens (Human), UniProt P01116, G12C). Briefly: KRAS (GDP) biochemical TR-FRET probe displacement assay, KRAS-G12C. The following applies: 2 hours. The format is binding. How it is done:
as §1, §2

For a further experiment, the target named is GDP-loaded KRAS-G12V (Homo sapiens (Human), UniProt P01116, G12V). The experiment can be described thus: KRAS (GDP) biochemical TR-FRET probe displacement assay, KRAS-G12V. Format: binding. The conditions noted are these: 2 hours. Here is the method:
as §1, §2

In another experiment the target is GDP-loaded KRAS-G12D (Homo sapiens (Human), UniProt P01116, G12D). Briefly: KRAS (GDP) biochemical TR-FRET probe displacement assay, KRAS-G12D. Format: binding. The conditions noted are these: 2 hours. Here is the method: as §1, §2
For experiment [2], the system named is cellular pERK in Kuramochi (WT KRAS) cell-line. The experiment can be described thus: Cell based pERK assay (HTRF), Kuramochi. The conditions noted are these: Kuramochi (WT KRAS) cells, 2 hours incubation. In a few lines:
(§3)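 IC50 values derive from TR-FRET ratios scaled between DMSO (negative) and a saturating reference inhibitor (positive). The signal reports phospho-ERK1/2 in lysates from cells exposed to compound for 2 h at 37 °C.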

The test system of experiment [3] is cellular pERK in MIA-PaCa-2 (KRAS-G12C) cell-line. The experiment can be described thus: Cell based pERK assay (HTRF), MIA-PaCa-2. The following applies: MIA-PaCa-2 (KRAS-G12C) cells, 2 hours incubation, read-out: MIAPaCa2 pERK EC50. In a few lines:
as §3

Experiment [4] concerns cellular pERK in NCI-H441 (KRAS-G12V) cell-line. Briefly: Cell based pERK assay (HTRF), NCI-H441. The conditions noted are these: NCI-H441 (KRAS-G12V) cells, 2 hours incubation. In a few lines:
as §3

Experiment [5] deals with cellular pERK in ASPC-1 (KRAS G12D) cell-line. The experiment can be described thus: Cell based pERK assay (HTRF), ASPC-1. The following applies: ASPC-1 (KRAS G12D) cells, 2 hours incubation. In a few lines: as §3

The term IC50 denotes the concentration that gives 50% inhibition. Lower therefore signals greater potency. For orientation: EC50 means the concentration that produces a half-maximal response.

Read-outs that look alike come from different tables or passages of the source.

Chain of GDP-loaded wild-type KRAS (WT) (P01116-2 other isoform, or with tags, fused parts or gaps): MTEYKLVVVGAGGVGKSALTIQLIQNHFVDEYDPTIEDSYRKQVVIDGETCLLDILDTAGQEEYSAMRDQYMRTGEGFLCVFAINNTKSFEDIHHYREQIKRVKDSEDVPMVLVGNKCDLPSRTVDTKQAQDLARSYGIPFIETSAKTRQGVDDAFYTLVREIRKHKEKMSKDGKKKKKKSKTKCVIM
Chain of GDP-loaded KRAS-G12V (P01116-2 other isoform, or with tags, fused parts or gaps G12V): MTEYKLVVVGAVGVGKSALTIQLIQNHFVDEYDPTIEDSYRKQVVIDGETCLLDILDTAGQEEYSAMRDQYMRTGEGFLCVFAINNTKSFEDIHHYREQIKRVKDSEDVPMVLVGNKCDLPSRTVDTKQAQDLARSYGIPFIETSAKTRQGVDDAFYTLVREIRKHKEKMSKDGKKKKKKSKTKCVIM
Chain of GDP-loaded KRAS-G12D (P01116-2 other isoform, or with tags, fused parts or gaps G12D): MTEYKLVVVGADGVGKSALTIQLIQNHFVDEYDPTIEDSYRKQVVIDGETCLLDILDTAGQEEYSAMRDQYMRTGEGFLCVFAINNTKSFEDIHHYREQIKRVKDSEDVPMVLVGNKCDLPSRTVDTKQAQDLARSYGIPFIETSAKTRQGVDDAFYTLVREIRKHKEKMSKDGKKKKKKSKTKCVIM
Chain of GDP-loaded KRAS-G12C (P01116-2 other isoform, or with tags, fused parts or gaps G12C): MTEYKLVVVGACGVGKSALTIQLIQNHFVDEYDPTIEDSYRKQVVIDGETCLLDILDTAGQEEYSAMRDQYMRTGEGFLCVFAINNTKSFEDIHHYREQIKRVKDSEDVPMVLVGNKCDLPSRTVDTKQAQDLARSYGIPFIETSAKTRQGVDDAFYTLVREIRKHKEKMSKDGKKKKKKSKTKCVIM

As for `C#Cc1c(F)ccc2cc(O)cc(-c3nc4c5c(nc(OCC67CCCN6[C@H](COCC(F)(F)F)CC7)nc5c3F)N3CCCOCC3CC4)c12` (stereo partly shown) [Example 22-8], the IC50 came out at 1.61 nM in experiment [1], 0.67 nM on GDP-loaded KRAS-G12C, 1.37 nM on GDP-loaded KRAS-G12V and 0.36 nM on GDP-loaded KRAS-G12D. For the same compound, the EC50 was found to be 2.15 nM in experiment [2]; 5.57 nM in experiment [3] (Homo sapiens); 6.08 nM in experiment [4] (Homo sapiens); 14.6 nM in experiment [5] (Homo sapiens, ASPC1).

For `C#Cc1c(F)ccc2cc(N)cc(-c3nc4c5c(nc(OC[C@@]67CCCN6[C@H](COc6cc(C(F)(F)F)ncn6)CC7)nc5c3F)N3CCCOC[C@@H]3CC4)c12` [Example 7-4], the IC50 was found to be 2.26 nM in experiment [1], 1.02 nM at GDP-loaded KRAS-G12C, 2.01 nM at GDP-loaded KRAS-G12V and 4.5 nM at GDP-loaded KRAS-G12D. Besides, the EC50 in experiment [2] amounted to 4.47 nM; in experiment [3] (Homo sapiens), 9.04 nM; in experiment [4] (Homo sapiens), 8.95 nM; in experiment [5] (Homo sapiens, ASPC1), 26.3 nM.

On to `Cc1cc(N)nc(-c2c(Cl)c3c4c(nc(OC[C@@]56CCCN5C[C@H](F)C6)nc4c2F)N2CCCOCC2CC3)c1C(F)(F)F` (mixture of isomers) [Example 21-1, 6-(12-chloro-10-fluoro-8-(((2R,7aS)-2-fluorotetrahydro-1H-pyrrolizin-7a(5H)-yl)methoxy)-1,4,5,13,14,14a-hexahydro-3H-[1,4]oxazepino[4′,3′:1,7]azepino[2,3,4-de]quinazolin-11-yl)-4-methyl-5-(trifluoromethyl)pyridin-2-amine], for which the IC50 in experiment [1] was 5290 nM; on GDP-loaded KRAS-G12C, 1440 nM; at GDP-loaded KRAS-G12V it was 4960 nM; on GDP-loaded KRAS-G12D it was 17500 nM. For the same compound, the EC50 in experiment [2] was above 956 nM; in experiment [3], 4640 nM; in experiment [4], 7240 nM; in experiment [5] (read-out: AsPC1 pERK EC50) it was 27100 nM.

On to `C#Cc1c(F)ccc2cc(O)cc(-c3nc4c5c(nc(OC[C@@]67CCCN6[C@H](COc6nccnc6C(F)C(C)F)CC7)nc5c3F)N3CCCOC[C@@H]3CC4)c12` (stereo partly shown) [Example 6-14], for which the IC50 amounted to 0.05 nM in experiment [1], 0.08 nM on GDP-loaded KRAS-G12C, 0.09 nM on GDP-loaded KRAS-G12V and 0.09 nM at GDP-loaded KRAS-G12D. Further, the EC50 was determined as 3.46 nM in experiment [2]; 0.32 nM in experiment [3] (Homo sapiens); 2.07 nM in experiment [4] (Homo sapiens); 3.5 nM in experiment [5] (Homo sapiens, ASPC1).

Take `C#Cc1c(F)ccc2cc(N)cc(-c3nc4c5c(nc(OC[C@@]67CCCN6[C@H](COc6cc(C(F)(F)F)cnn6)CC7)nc5c3F)N3CCCOC[C@@H]3CC4)c12` [Example 7-5]: the IC50 amounted to 1.8 nM in experiment [1], 0.55 nM on GDP-loaded KRAS-G12C, 0.65 nM on GDP-loaded KRAS-G12V and 1.76 nM at GDP-loaded KRAS-G12D. The EC50 in experiment [2] is 1.4 nM; in experiment [3] (Homo sapiens), 1.34 nM; in experiment [4] (Homo sapiens) it was 3.48 nM; in experiment [5] (Homo sapiens, ASPC1), 21.2 nM.

With `C#Cc1c(F)ccc2cc(O)cc(-c3nc4c5c(nc(OCC67CCCN6[C@H](COC(C(F)(F)F)C(F)(F)F)CC7)nc5c3F)N3CCCOCC3CC4)c12` (stereo partly shown) [Example 22-7], the IC50 came out at 30.6 nM in experiment [1], 34.7 nM at GDP-loaded KRAS-G12C, 12.6 nM on GDP-loaded KRAS-G12V and 31 nM on GDP-loaded KRAS-G12D. The EC50 in experiment [2] came to 9.83 nM; in experiment [3] (Homo sapiens), 6.69 nM; in experiment [4] (Homo sapiens), 37.1 nM; in experiment [5] (Homo sapiens, ASPC1), 54.6 nM.

Regarding `C#Cc1c(F)ccc2cc(O)cc(-c3nc4c5c(nc(OCC6(CN7CCCCC7)CC6)nc5c3F)N3CCCOC[C@@H]3CC4)c12` [Example 15-1, (S)-5-ethynyl-6-fluoro-4-(1-fluoro-12-((1-(piperidin-1-ylmethyl)cyclopropyl)methoxy)-4,5,5a,6,9,10-hexahydro-8H-7-oxa-3,10a,11,13-tetraazanaphtho[1,8-ab]heptalen-2-yl)naphthalen-2-ol], the IC50 in experiment [1] turned out to be 69.1 nM; at GDP-loaded KRAS-G12C, 37.1 nM; on GDP-loaded KRAS-G12V, 47.7 nM; at GDP-loaded KRAS-G12D, 56.4 nM. The EC50 in experiment [2] was found to be 181 nM; in experiment [3] (Homo sapiens), 217 nM; in experiment [4] (Homo sapiens), 572 nM; in experiment [5] (Homo sapiens, ASPC1), 655 nM.

Turning to `C#Cc1c(F)ccc2cc(O)cc(-c3nc4c5c(nc(OC[C@@]67CCCN6C[C@H](F)C7)nc5c3F)N3CCOCC[C@@H]3CC4)c12` (single isomer, unassigned) [Example 9-2], the IC50 in experiment [1] stood at 0.06 nM; on GDP-loaded KRAS-G12C it was 0.06 nM; at GDP-loaded KRAS-G12V it was 0.1 nM; on GDP-loaded KRAS-G12D, 0.15 nM. For the same compound, the EC50 in experiment [2] stood at 1.59 nM; in experiment [3] (Homo sapiens), 0.23 nM; in experiment [4] (Homo sapiens) it was 2.14 nM; in experiment [5] (Homo sapiens, ASPC1), 11.7 nM.

On to `C#Cc1c(F)ccc2cc(O)cc(-c3nc4c5c(nc(OC[C@@]67CCCN6[C@H](COc6cc(C(F)(F)F)ncn6)CC7)nc5c3F)N3CCCOC[C@@H]3C=C4C)c12` [Example 18-1, 5-ethynyl-6-fluoro-4-((S)-1-fluoro-4-methyl-12-(((3S,7aS)-3-(((6-(trifluoromethyl)pyrimidin-4-yl)oxy)methyl)tetrahydro-1H-pyrrolizin-7a(5H)-yl)methoxy)-5a,6,9,10-tetrahydro-8H-7-oxa-3,10a,11,13-tetraazanaphtho[1,8-ab]heptalen-2-yl)naphthalen-2-ol], for which the IC50 was determined as 5.56 nM in experiment [1], 3.59 nM at GDP-loaded KRAS-G12C, 2.77 nM at GDP-loaded KRAS-G12V and 3.27 nM at GDP-loaded KRAS-G12D. Further, the EC50 came to 3.53 nM in experiment [2]; 3.25 nM in experiment [3] (Homo sapiens); 12.8 nM in experiment [4] (Homo sapiens); 14 nM in experiment [5] (Homo sapiens, ASPC1).

On to `C#Cc1c(F)ccc2cc(O)cc(-c3nc4c5c(nc(OC[C@@]67CCCN6[C@H](COc6cc(C(F)(F)F)cnn6)CC7)nc5c3F)N3CCCOC[C@@H]3C=C4C)c12` [Example 18-2], for which the IC50 in experiment [1] is 0.36 nM; on GDP-loaded KRAS-G12C, 0.49 nM; on GDP-loaded KRAS-G12V, 0.42 nM; on GDP-loaded KRAS-G12D it was 0.65 nM. The EC50 in experiment [2] was 3.63 nM; in experiment [3] (Homo sapiens), 0.82 nM; in experiment [4] (Homo sapiens), 1.05 nM; in experiment [5] (Homo sapiens, ASPC1), 1.39 nM.

With `C#Cc1c(F)ccc2cccc(-c3nc4c5c(nc(OC[C@@]67CCCN6[C@H](COC(=O)N6CCCCC6)CC7)nc5c3F)N3CCCOC[C@@H]3CC4)c12` [Example 16-2], the IC50 was determined as 0.17 nM in experiment [1], 0.19 nM at GDP-loaded KRAS-G12C, 0.2 nM at GDP-loaded KRAS-G12V and 0.24 nM on GDP-loaded KRAS-G12D. For the same compound, the EC50 in experiment [2] came out at 1.99 nM; in experiment [3] (Homo sapiens) it was 0.28 nM; in experiment [4] (Homo sapiens) it was 0.56 nM; in experiment [5] (Homo sapiens, ASPC1) it was 0.62 nM.

In the case of `C#Cc1c(F)ccc2cc(O)cc(-c3nc4c5c(nc(OC[C@@]67CCCN6C/C(=C\F)C7)nc5c3F)N3CCCOC[C@@H]3CC4)c12` [Example 6-23], the IC50 in experiment [1] was 0.06 nM; at GDP-loaded KRAS-G12C, 0.05 nM; on GDP-loaded KRAS-G12V, 0.05 nM; at GDP-loaded KRAS-G12D, 0.04 nM. The EC50 in experiment [2] was determined as 1.14 nM; in experiment [3] (Homo sapiens), 0.06 nM; in experiment [4] (Homo sapiens) it was 0.2 nM; in experiment [5] (Homo sapiens, ASPC1), 0.44 nM.

For the compound `C#Cc1c(F)ccc2cc(O)cc(-c3nc4c5c(nc(OC[C@@]67CCCN6C[C@H](F)C7)nc5c3F)N3CCOCCC3CC4)c12` (mixture of isomers) [Example 6-13], the half-inhibitory concentration (IC50) in experiment [1] is 0.06 nM; at GDP-loaded KRAS-G12C, 0.06 nM; at GDP-loaded KRAS-G12V it was 0.1 nM; at GDP-loaded KRAS-G12D it was 0.15 nM. For the same compound, the EC50 in experiment [2] was 1.59 nM; in experiment [3] (Homo sapiens), 0.23 nM; in experiment [4] (Homo sapiens), 2.14 nM; in experiment [5] (Homo sapiens, ASPC1), 11.7 nM.

For the compound `C#Cc1c(F)ccc2cc(N)cc(-c3nc4c5c(nc(OC[C@@]67CCCN6C[C@H](F)C7)nc5c3F)N3CCCOC[C@@H]3CC4)c12` [Example 7-1, 5-ethynyl-6-fluoro-4-((S)-1-fluoro-12-(((2R,7aS)-2-fluorotetrahydro-1H-pyrrolizin-7a(5H)-yl)methoxy)-4,5,5a,6,9,10-hexahydro-8H-7-oxa-3,10a,11,13-tetraazanaphtho[1,8-ab]heptalen-2-yl) naphthalen-2-amine], the IC50 in experiment [1] turned out to be 3.87 nM; on GDP-loaded KRAS-G12C it was 0.9 nM; at GDP-loaded KRAS-G12V, 1.78 nM; on GDP-loaded KRAS-G12D, 2.73 nM. Also, the EC50 was 2.09 nM in experiment [2]; 4.12 nM in experiment [3] (Homo sapiens); 4.46 nM in experiment [4] (Homo sapiens); 17.9 nM in experiment [5] (Homo sapiens, ASPC1).
